We go through 26 compounds from ChEMBL document CHEMBL1681675, “3,5-diarylazoles as novel and selective inhibitors of protein kinase D” (Bioorg Med Chem Lett, 2011).

Series [1] can be described thus: Solubility of the compound. The series is classed as physicochemical.
Series [2] can be described thus: Volume of distribution at steady state in Sprague-Dawley rat at 2 mg/kg, iv or 5 mg/kg, po. The series is classed as ADME, organism-based. Conditions: in vivo, read-out: Vdss.
A short description of series [3]: Oral bioavailability in Sprague-Dawley rat at 5 mg/kg. In kind it is ADME, organism-based. The following applies: in vivo.
Series [4] is described as follows: AUC (0 to 8 hrs) in Sprague-Dawley rat at 2 mg/kg, iv or 5 mg/kg, po. In kind it is ADME, organism-based. The following applies: plasma.

The structures appear in SMILES notation. Values after ≈ are worked out from the molar mass of the structure shown.

One may read the solubility as how much of the substance goes into solution per volume. Read a high solubility as a readily soluble substance. With `CCCNC(=O)c1cccc(-c2cc(-c3ccc(N4CCN(C)CC4)cc3)[nH]n2)c1`, the concentration in solution in series [1] (solubility) was 330 µM (≈ 133 µg/mL). `COCCNCc1ccc(-c2cc(-c3cccc(C(=O)NC(C)C)c3)n[nH]2)cc1`: the solubility in series [1] was determined as 910 µM (≈ 357 µg/mL). With `CC(C)NC(=O)c1cccc(-c2cc(-c3ccc(CNC4CC4)cc3)[nH]n2)c1`, the solubility in series [1] is 220 µM (≈ 82.4 µg/mL). In series [1], `CC(C)NC(=O)c1cccc(-c2cc(-c3ccc(N4CCN(C)CC4)cc3)[nH]n2)c1` registered a solubility of 270 µM (≈ 109 µg/mL). In the case of `CC(C)NC(=O)c1cccc(-c2cc(-c3ccc(N4CCN(C)CC4)c(Br)c3)[nH]n2)c1`, the concentration in solution in series [1] (solubility) was 40 µM (≈ 19.3 µg/mL).

For the compound `CC(C)NC(=O)c1cccc(-c2cc(-c3ccc(N4CCN(C)CC4)c(-c4ccccc4)c3)[nH]n2)c1`, in series [1], the solubility is under 10 µM. The compound `CC(C)NC(=O)c1cccc(-c2cc(-c3ccc(N4CCN(C)CC4)c(-c4ccncc4)c3)[nH]n2)c1` came in with a solubility in series [1] of under 10 µM. Consider `CN1CCN(c2ccc(-c3cc(-c4cccc(C(=O)NCC#N)c4)n[nH]3)cc2)CC1`, for which, in series [1], the solubility amounted to 50 µM (≈ 20 µg/mL).

`CN1CCN(c2ccc(-c3cc(-c4cccc(C(=O)NCC#N)c4)n[nH]3)cc2Br)CC1` showed a solubility in series [1] of under 10 µM. On to `CN1CCN(c2ccc(-c3cc(-c4cccc(C(=O)NCCC#N)c4)n[nH]3)cc2)CC1`, for which the concentration in solution in series [1] (solubility) came to 650 µM (≈ 269 µg/mL).

In series [1], `COCCNC(=O)c1cccc(-c2cc(-c3ccc(N4CCN(C)CC4)cc3)[nH]n2)c1` returned a solubility of 760 µM (≈ 319 µg/mL). On to `CN1CCN(c2ccc(-c3cc(-c4cccc(C(=O)NCCO)c4)n[nH]3)cc2)CC1`, for which, in series [1], the solubility was determined as 170 µM (≈ 68.9 µg/mL).

For the compound `CN(C)CCNC(=O)c1cccc(-c2cc(-c3ccc(N4CCN(C)CC4)cc3)[nH]n2)c1`, the solubility in series [1] is over 960 µM.

`CN1CCN(c2ccc(-c3cc(-c4cccc(C(=O)NCC(F)(F)F)c4)n[nH]3)cc2)CC1` came in with a solubility in series [1] of 170 µM (≈ 75.4 µg/mL). Take `CN1CCN(c2ccc(-c3cc(-c4cccc(C(=O)NCC#N)c4)no3)cc2)CC1`: the solubility in series [1] is under 10 µM. Consider `C[C@H](C#N)NC(=O)c1cccc(-c2cc(-c3ccc(N4CCN(C)CC4)cc3)on2)c1`, for which, in series [1], the solubility is under 10 µM. Consider `C[C@@H](C#N)NC(=O)c1cccc(-c2cc(-c3ccc(N4CCN(C)CC4)cc3)on2)c1`, for which the solubility in series [1] was under 10 µM. As for `CC(C)NCc1ccc(-c2cc(-c3cccc(C(=O)NC(C)C)c3)[nH]n2)cc1`, the solubility in series [1] was over 970 µM. Same read-out and setting: the value for `CC(C)NC(=O)c1cccc(-c2cc(-c3ccc(CNCC(F)(F)F)cc3)[nH]n2)c1` was under 10 µM. In series [1], `CC(C)NCc1ccc(-c2cc(-c3cccc(C(=O)N[C@H](C)C#N)c3)[nH]n2)cc1` had a solubility of over 990 µM.

`CC(C)NCc1ccc(-c2cc(-c3cccc(C(=O)N[C@H](C)C#N)c3)no2)cc1`: the solubility in series [1] was over 870 µM.

`CC(C)NC(=O)c1cccc(-c2cc(-c3ccc(CNC4CCOCC4)cc3)on2)c1` returned a solubility in series [1] of 140 µM (≈ 58.7 µg/mL). For the compound `N#CCNC(=O)c1cccc(-c2cc(-c3ccc(CNC4CCOCC4)cc3)on2)c1`, in series [1], the solubility was determined as 170 µM (≈ 70.8 µg/mL).

The compound `CC(C)(C#N)NC(=O)c1cccc(-c2cc(-c3ccc(CNC4CCOCC4)cc3)on2)c1` came in with a solubility in series [1] of 70 µM (≈ 31.1 µg/mL). A word on the bioavailability: it is the share of a dose that reaches the circulation, judged against a reference dose that is usually intravenous. One may read the AUC(0-t) as the area under the concentration-time curve up to a stated or last time point. A low value points to less exposure. On to `C[C@H](C#N)NC(=O)c1cccc(-c2cc(-c3ccc(CNC4CCOCC4)cc3)on2)c1`, for which, in series [2], the Vd came to 6 L/kg. This compound registered a bioavailability in series [3] of 38%. Besides, in series [1], the solubility stood at 240 µM (≈ 103 µg/mL). Also, the AUC(0-t) in series [4] stood at 840 nM·h. In the case of `C[C@@H](C#N)NC(=O)c1cccc(-c2cc(-c3ccc(CNC4CCOCC4)cc3)on2)c1`, the solubility in series [1] was found to be 110 µM (≈ 47.4 µg/mL).
